1 compound from patent US10183032B2, “Methods for treating bacterial infection” (Ball State Innovation Corporation, priority 2012, dated 2019) can be followed below.

One data set has as its system RAW 264.7 cells. The experiment in a line: Cytotoxicity by propidium iodide, RAW 264.7 cells. It counts as cell-based. Particulars: RAW 264.7 pretreated 18-20 h.
In another data set the test system is Staphylococcus aureus. Put plainly: S. aureus invasion of serum-starved RAW 264.7 cells, CFU recovery. It counts as cell-based. Particulars: treatment 1 hour, serum-starved conditions, 10 μM. The protocol: FIG. 5 is a graph illustrating ML 141 inhibiting invasion with shorter duration exposure under serum starved conditions. RAW 264.7 cells were serum-starved overnight then pretreated for 1 hour with the vehicle control dimethyl sulfoxide (DMSO) or with ML 141 (10 μM). Following infection with Staphylococcus aureus (1 hour), extracellular bacteria were eliminated using the antimicrobials gentamicin and lysostaphin (45 minutes), and intracellular bacteria recovered by permeabilizing the host cells. Serial dilutions of the recovered intracellular bacteria were incubated on tryptic soy agar, colonies enumerated, and colony forming units (CFU)/ml calculated (*less than vehicle control; p≤0.05 by Student's t-test; n=3/treatment). […]
Two days prior to the assay, TSB is inoculated with S. aureus (American Type Culture Collection #29213) and incubated overnight (225 rpm, 37° C.). […] To detect the level of infection using flow cytometry, cells that have been infected with fluorescently-labeled bacteria are washed extensively with PBS, lifted from 96-well plate by incubation with trypsin, washed extensively in FACS buffer (2% BSA/0.1% sodium azide/PBS), fixed (FACS buffer containing 0.74% formaldehyde), and are counted using an Accuri flow cytometer (BD, Franklin Lakes, N.J.). […]

Data set [1] is described as follows: In vivo toxicity, single intraperitoneal injection. Conditions: dissolved in polyethylene glycol, C57BL/6 mice. The protocol:
Specific pharmacologic inhibition of CDC42 has been examined to determine whether it is sufficient in the inhibition of host cell invasion by S. aureus. Host cell cytotoxicity was undetectable below 30 μM in vitro. The highest concentration of ML 141 introduced in vivo without detectable toxicity was 100 mg/kg body weight [BW]. The compound was dissolved in polyethylene glycol and administered as a single intraperitoneal injection to C57BL/6 mice.

Another data set relates to actin stress fibers. The experiment in a line: Actin stress fiber depolymerization in HUVEC during S. aureus infection. It counts as cell-based, human. Particulars: 18-20 h pretreatment, S. aureus 1 h. The protocol: FIG. 8A is an image depicting ML 141 limiting actin stress fiber depolymerization during infection. Human umbilical vein endothelial cells (HUVEC) were incubated with ML 141 or with the vehicle control polyethylene glycol (PEG) 18-20 h prior to infection with Staphylococcus aureus (1 h). Actin was detected using Alexa Fluor 488 phalloidin. Arrows indicate intact actin stress fibers. Arrowhead indicates cell lacking actin stress fibers. 100 cells/treatment were evaluated from randomly selected fields. Data are presented as the % of cells in which actin stress fibers were not detected. Scale bar is 50 μm.
FIG. 8B is an image depicting RSM 06 limiting actin stress fiber depolymerization during infection. Human umbilical vein endothelial cells (HUVEC) were incubated with RSM 06 or with the vehicle control polyethylene glycol (PEG) 18-20 h prior to infection with Staphylococcus aureus (1 h). Actin was detected using Alexa Fluor 488 phalloidin. 200 cells/treatment were evaluated from randomly selected fields. Data are presented as the % of cells in which actin stress fibers were not detected. Scale bar is 50 μm.
FIG. 8C is an image depicting RSM 16 limiting actin stress fiber depolymerization during infection. Human umbilical vein endothelial cells (HUVEC) were incubated with RSM 16 or with the vehicle control polyethylene glycol (PEG) 18-20 h prior to infection with Staphylococcus aureus (1 h). Actin was detected using Alexa Fluor 488 phalloidin. 200 cells/treatment were evaluated from randomly selected fields. Data are presented as the % of cells in which actin stress fibers were not detected. Scale bar is 50 μm.
HUVEC are plated at 1×10^5 cells/ml into 35 mm glass-bottom dishes (MatTek, Ashland, Mass.) are coated with Attachment Factor, are pretreated, and are infected (1.2×10^8 CFU) as described above. […] Alexa 488 is excited by the 488 nanommeter Ar laser line and is detected using a 505-530 nanometer bandpass filter. […] Maximum pixel projections from the Z-stacks are generated and are analyzed for actin morphology.

The structures appear in SMILES notation.

As for `COc1ccc(C2CC(c3ccccc3)=NN2c2ccc(S(N)(=O)=O)cc2)cc1` (stereo not shown) [ML 141, 4-[3-(4-methoxyphenyl)-5-phenyl-3,4-dihydropyrazol-2-yl]benzenesulfonamide], in the data set with RAW 264.7 cells, the “Mean fluorescence intensity (×10^3 ± SEM), Compound (10 μM)” value is on record as 2.5 ± 0.3 ×10^3. For the same compound, in the data set on Staphylococcus aureus, the “inhibition of invasion, shorter exposure” value is on record as “Inhibition is detectable”. Besides, in data set [1], the “highest concentration introduced in vivo without detectable toxicity” value is 100 mg/kg body weight. Further, the “depolymerization of actin stress fibers during infection” value in the data set with actin stress fibers is on record as “remained intact”.
